Results as given in patent publication US5608084A, “Lactones with antioxidising and hypolipidaemic activity useful in the therapy of the atherosclerosis” (priority 1994, dated 1997).

Assays:
B-100 apolipoprotein = assay: Fragmentation of B-100 apolipoprotein on SDS-PAGE (oxidative modification of LDL); type: biochemical, human; conditions: 10 μM
Text: The determination of the melting point has been carried out by means of a capillary melting point apparatus Electrothermal, without any correction. The I.R. spectrum has been obtained by means of a Perkin-Elmer rood. 963/G spectrophotometer generally, when not otherwise specified, preparing the specimen in potassium bromide and recording the spectrum between 4000 and 600 nm. […] The mass spectrum has been recorded by using a VG 7070E mass spectrometer, at a 70 eV ionization voltage and with a 6 Kvolt acceleration voltage. […] Chem., 43, 2923, (1978). […] The antioxidant activity has been evaluated through the capability of some lactones of formula I to prevent and/or delay the oxidative modification of the lipoproteins (LDL), caused by a chemical method by incubating native LDL with cupric ions, according to the method described by Steinbrecher U. P. in J. Biol. Chem., 262, 3603-3608, (1987). The evaluation of the oxidation degree of the LDL through the monitoring of the concentration of aldehydes derived from the degradation of the lipidic peroxides and the observation of the modifications of the B-100 apolipoprotein represent the used experimental approach. The antioxidant activity of the lactones has been expressed in terms of duration of the latency period that represents a parameter of the resistance to the oxidation of the LDL. The LDL have been isolated from the human plasma obtained from blood collected, in the presence of EDTA, from healty volunteers fasting from 8 hours according to the method described by Havel H. in J. Clin. Invest., 34, 1345-1353, (1955). The solution, dialyzed in Visking-Serva dialysis tubes at 4° C. for 72 hours in phosphate buffer (PBS) added with EDTA (0.24 mM), has been filtered through a membrane with 0.45μ porosity (Millex HV Filters) and the proteic concentration has been determined according to the method described by Lowry O. et al. in J. Biol. Chem., 193, 265-275, (1951). The solution has been diluted with PBS-EDTA at a concentration of 500 μg protein/ml and the obtained LDL have been incubated at 42° C. for 45 minutes in presence of the lactones solubilized in ethanol (1.7 μl/ml LDL). At the end of the incubation the solutions have been placed on ice for 45 minutes and dialyzed at 4° C. for 36 hours in PBS. The oxidation of the LDL has been carried out with 5 μM cupric sulfate at 37° C. and stopped at the experimental times by cooling at 4° C. and adding 0.24 mM of EDTA. The solutions of LDL have been kept at 4° C. and sheltered from light during the experimental procedure. […] 52, (1978).
The inhibition of the oxidative process has been evaluated also by means of the study of the fragmentation of the B-100 apolipoprotein through the electrophoretic analysis on polyacrylamide gel in presence of sodium dodecylsulfate (SDS-PAGE), according to the method described by Laemmli U. K., in Nature, 227, 680, (1970). The quantitative evaluation of the disappearance of the B-100 apolipoprotein has been carried out by densitometric unidimensional measurement of the absorbance at λ=633nm, on an electrophoretic plate 13.5 cm long, after colouring with Coomassie Brillant Blue. The reagents used for the preparation and coloration of the gels, the reference standard (SDS-PAGE standards Broad Range--Cat. no. 161-0317), the gradient former (gradient former Bio-Rad Mod. 385) and the electrophoretic cell (Protean II) are Bio-Rad products; the feeder is a LKB Pharmacia Mod. 2197, the densitometer is a Pharmacia LKB Mod. 2222-020 Ultrascan XL with integrators LKB 2220 and LKB 2190 GelScan Software Package.

LDL = conditions: in vitro, LDL incubated with antioxidizer; cited from earlier work
[1] = tested on: Watanabe rabbits, suffering from familial hypercholesterolaemia; conditions: cited from earlier work

Compound	Area of the B-100 apolipoprotein peak (B-100 apolipoprotein; 0 minutes) [AU/mm]	Area of the B-100 apolipoprotein peak (B-100 apolipoprotein; 60 minutes) [AU/mm]	Area of the B-100 apolipoprotein peak (B-100 apolipoprotein; 90 minutes) [AU/mm]	Area of the B-100 apolipoprotein peak (B-100 apolipoprotein; 120 minutes) [AU/mm]	Area of the B-100 apolipoprotein peak (B-100 apolipoprotein; 150 minutes) [AU/mm]	Area of the B-100 apolipoprotein peak (B-100 apolipoprotein; 180 minutes) [AU/mm]	Area of the B-100 apolipoprotein peak (B-100 apolipoprotein; 360 minutes) [AU/mm]	atherogenic potentialities of the LDL (LDL)	LDL plasma levels [1]	atheromatous lesions [1]
CC(C)(Sc1cc(C(C)(C)C)c(O)c(C(C)(C)C)c1)Sc1cc(C(C)(C)C)c(O)c(C(C)(C)C)c1 [Probucol, reference compound]	2.7	1.8	1.6	0.9	0.9	0.6	0.3	remarkably lowered	does not substantially modify the LDL plasma levels	lowers the atheromatous lesions
Cc1c(C)c2c(c(C)c1O)CCC(C)OC(=O)C(C)(C)CCCO2 (stereo not drawn) [Example 3, 6,6,9,13,15,16-Hexamethyl-14-hydroxy-2,8-dioxabicyclo[10.4.0]hexadec-12,14,16-trien-7-one]	2.2	2.0	1.9	1.6	1.5	1.5	1.5	–	–	–
CCC1CCc2c(C)c(O)c(C)c(C)c2OCCCC(C)(C)C(=O)O1 (stereo not drawn) [Example 6, 9-Ethyl-14-hydroxy-6,6,13,15,16-pentamethyl-2,8-dioxabicyclo[10.4.0]hexadec-12,14,16-trien-7-one]	2.5	2.3	2.1	2.0	1.7	1.6	1.6	–	–	–
